Experimental data as given in ChEMBL document CHEMBL5344462, “Novel-Type GABAB PAMs: Structure-Activity Relationship in Light of the Protein Structure” (ACS Med Chem Lett, 2024).

Assay: Positive allosteric modulator activity at rat cortical membrane GABA-B receptor incubated for 60 min by [35S]GTPgammaS binding assay
Type: cell membranes, Cortex

Row | SMILES | pEC50
1 | CC(=O)Nc1cccc(-c2c(S(C)(=O)=O)c(C)nc3cc(-c4ccc(Cl)cc4)nn23)c1 | 6.42
2 | Cc1nc2ccc(I)cc2c(N2CCCCC2)c1S(C)(=O)=O | 5.83
3 | CC(=O)Nc1ccccc1-c1cc(C)nc2cc(-c3ccc(Cl)cc3)nn12 | 6.17
4 | CCOC(=O)C1CCCN(c2cc(C)nc3cc(-c4ccc(Cl)cc4)nn23)C1 (racemic) | 5.85
5 | CC(C)(C)c1cc(C(C)(C)C)c2c(c1)C(O)(C(F)(F)F)C(=O)O2 (racemic) | 6.78
6 | Cc1nc(N2CCCCC2CCO)c2nc(-c3ccc(Cl)cc3)cn2n1 (racemic) | 6.24
7 | CCOC(=O)C1=C(N2CCOCC2CCO)N2N=C(c3ccc(Cl)cc3)CC2N=C1C (racemic) | 6.09
8 | COc1c(C)nc2cc(-c3ccc(Cl)cc3)nn2c1N1CCCCC1CCO (racemic) | 7.05
9 | Cc1cc(N2CCCCC2CCO)c2sc(-c3ccc(Cl)cc3)cc2n1 (racemic) | 6.22
10 | Cc1cc(N2CCCCC2CCO)n2nc(-c3ccc(C#N)cc3)cc2n1 (racemic) | 5.29
11 | Cc1cc(N2CCCCC2C(N)=O)n2nc(-c3ccc(Cl)cc3)cc2n1 (racemic) | 6.55
12 | COc1ccc(-c2cc3nc(C)cc(N4CCCCC4CCO)n3n2)cc1 (racemic) | 5.25
13 | Cc1cc(N2CCCCC2CCO)c2cc(-c3ccc(Cl)cc3)oc2n1 (racemic) | 5.92
14 | CSc1c(C)nc2cc(-c3ccc(Cl)cc3)nn2c1N1CCCC(C(=O)O)C1 (racemic) | 6.93
15 | Cc1cc(N2CCCC(C(=O)O)C2)n2nc(-c3ccc(Cl)cc3)cc2n1 (racemic) | 5.32

Other lines, results leading:

Row | pEC50 | SMILES
16 | 6.13 | Cc1ncc(-c2ccc(C(F)(F)F)cc2)c(N[C@@H]2C[C@H]3CC[C@@H]2C3)n1
17 | 7.75 | CSc1c(C)nc2cc(-c3ccc(Cl)cc3)nn2c1-c1cccc(NC(C)=O)c1
18 | 7.15 | CSc1c(C)nc2cc(-c3ccc(Cl)cc3)nn2c1N1CCC[C@@H](C(=O)O)C1
19 | 6.89 | COc1nn(-c2ccc(F)c(NC(C)=O)c2)c(=O)n(Cc2ccc(Cl)c(F)c2)c1=O
20 | 6.19 | CC(=O)Nc1cccc(-c2c([S+](C)[O-])c(C)nc3cc(-c4ccc(Cl)cc4)nn23)c1 (stereo not given)
21 | 6.75 | CSc1c(C)nc2cc(-c3ccc(Cl)cc3)nn2c1N1CCC[C@H](C(=O)O)C1
22 | 6.6 | CC(=O)Nc1cccc(-c2cc(C)nc3cc(-c4ccc(Cl)cc4)nn23)c1
23 | 6.59 | Cc1nc(N2CCCCC2CCO)c2sc(-c3ccc(Cl)cc3)cc2n1 (racemic)
24 | 5.4 | Cc1cc(NC2CCCNC2=O)n2nc(-c3ccc(Cl)cc3)cc2n1 (racemic)
25 | 5.78 | Cc1nc2cc(-c3ccc(Cl)cc3)nn2c(N2CCOCC2CCO)c1C#N (racemic)
26 | 5.91 | Cc1cc(N2CCCCC2CCO)n2nc(-c3ccccc3)cc2n1 (racemic)
27 | 5.69 | COc1c(C)nc2cc(-c3ccc(Cl)cc3)nn2c1N1CCCC(C(=O)O)C1 (racemic)
28 | 6.63 | Cc1nc(N2CCCCC2CCO)n2nc(-c3ccc(Cl)cc3)cc2n1 (racemic)
29 | 5.61 | Cc1cc(N2CCOCC2CCO)n2nc(-c3ccc(Cl)cc3)cc2n1 (racemic)
30 | 5.3 | Cc1cc(N2CCCCC2CCO)n2nc(-c3cccc(Cl)c3)cc2n1 (racemic)
31 | 5.97 | Cc1cc(N2CCCCC2C(=O)O)n2nc(-c3ccc(Cl)cc3)cc2n1 (racemic)
32 | 5.93 | Cc1cc(N2CCCCC2CCO)n2nc(-c3ccc(F)cc3)cc2n1 (racemic)
33 | 6.21 | Cc1cc(N2CCCCC2CCO)n2nc(-c3ccc(Cl)cc3)cc2n1 (racemic)
34 | 5.89 | Cc1cc(NC2CCCCNC2=O)n2nc(-c3ccc(Cl)cc3)cc2n1 (racemic)
35 | 5.24 | Cc1cc(N2CCCCC2CCO)n2nc(Cc3ccccc3)cc2n1 (racemic)
